Reference: US6743812B1, “Pharmaceutical compositions and methods for use” (Targacept, Inc., priority 2000, dated 2004)

Legend:
CNS nicotinic receptors = CNS nicotinic receptors (Rattus norvegicus, UniProt P09483+P12390); test: Determination of binding to relevant receptor sites; settings: binding to certain CNS nicotinic receptors; read-out: Ki (inhibition constant, calculated from IC50 by the method of Cheng et al.)
Method: Determination of Binding to Relevant Receptor Sites
Binding of the compounds to relevant receptor sites was determined in accordance with the techniques described in U.S. Pat. No. 5,597,919 to Dull et al. Inhibition constants (Ki values), reported in nM, were calculated from the IC50 values using the method of Cheng et al., Biochem, Pharnacol. 22:3099 (1973).

[1] = Physical and chemical stability of salt; assay type: physicochemical
Water solubility of salt = assay type: physicochemical
[2] = Water absorption (hygroscopicity) of salts; assay type: physicochemical

Sequence of CNS nicotinic receptors (P09483 31-630): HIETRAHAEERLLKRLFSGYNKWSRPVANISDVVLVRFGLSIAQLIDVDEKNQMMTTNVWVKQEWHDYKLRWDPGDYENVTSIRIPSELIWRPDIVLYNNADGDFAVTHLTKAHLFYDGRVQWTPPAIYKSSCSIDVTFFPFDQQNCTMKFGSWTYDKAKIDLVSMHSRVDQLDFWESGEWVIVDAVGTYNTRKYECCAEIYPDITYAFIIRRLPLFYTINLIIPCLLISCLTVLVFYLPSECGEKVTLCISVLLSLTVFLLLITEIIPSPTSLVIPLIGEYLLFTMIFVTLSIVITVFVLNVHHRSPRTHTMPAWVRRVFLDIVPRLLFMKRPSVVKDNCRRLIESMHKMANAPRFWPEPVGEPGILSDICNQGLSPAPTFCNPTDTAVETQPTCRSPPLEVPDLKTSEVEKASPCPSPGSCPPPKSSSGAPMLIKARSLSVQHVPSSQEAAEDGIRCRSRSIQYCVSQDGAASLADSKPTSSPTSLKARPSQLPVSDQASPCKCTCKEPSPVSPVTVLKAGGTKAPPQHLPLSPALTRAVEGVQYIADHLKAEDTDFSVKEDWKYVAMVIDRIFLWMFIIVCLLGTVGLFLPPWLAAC
Sequence of CNS nicotinic receptors (P12390 25-500): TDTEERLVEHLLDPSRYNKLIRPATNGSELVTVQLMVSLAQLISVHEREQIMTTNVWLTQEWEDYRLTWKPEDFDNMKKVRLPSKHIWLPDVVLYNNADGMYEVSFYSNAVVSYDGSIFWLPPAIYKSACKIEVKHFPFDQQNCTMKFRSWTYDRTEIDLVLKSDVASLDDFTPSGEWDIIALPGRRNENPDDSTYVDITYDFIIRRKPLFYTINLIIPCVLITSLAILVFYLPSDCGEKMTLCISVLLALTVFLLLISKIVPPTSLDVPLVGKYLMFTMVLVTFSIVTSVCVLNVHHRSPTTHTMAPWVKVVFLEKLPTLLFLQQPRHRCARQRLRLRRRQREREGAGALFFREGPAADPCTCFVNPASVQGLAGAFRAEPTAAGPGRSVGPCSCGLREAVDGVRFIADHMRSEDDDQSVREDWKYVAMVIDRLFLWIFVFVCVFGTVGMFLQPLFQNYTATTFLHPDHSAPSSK

Row | SMILES | Ki (CNS nicotinic receptors) [nM] | stability [1] | water solubility (Water solubility of salt) | amount of water absorbed ([2]; room temperature and 90% relative humidity) [%] | hygroscopicity compared with other salts ([2]; single salt: versus corresponding salt derived from galactaric acid (mucic acid)) | amount of water absorbed ([2]; 40° C. and 70% relative humidity) [%]
1 | CN[C@@H](C)C/C=C/c1cncc(OC(C)C)c1 [Sample No. 1, (2S)-(4E)-N-methyl-5-[3-(5-isopropoxypyridin)yl]-4-penten-2-amine hemi-(di-p-toluoyl-L-tartrate)] | 6 | – | – | – | – | –
2 | CN[C@@H](C)C/C=C/c1cncc(OC(C)C)c1 [Sample No. 2, (2S)-(4E)-N-methyl-5-[3-(5-isopropoxypyridin)yl]-4-penten-2-amine hemi-(di-p-toluoyl-D-tartrate)] | 5 | physically and chemically stable | water soluble | 3.2 | less hygroscopic | –
3 | CN[C@@H](C)C/C=C/c1cncc(OC(C)C)c1.CN[C@@H](C)C/C=C/c1cncc(OC(C)C)c1.O=C(O)[C@@H](O)[C@H](O)[C@H](O)[C@@H](O)C(=O)O [hemigalactarate of (2S)-(4E)-N-methyl-5-[3-(5-isopropoxypyridin)yl)]-4-penten-2-amine, reference compound] | – | – | – | – | – | 11.8
